Earlier results as cited in patent US20220288059A1, “NANOENCAPSULATED CANNABIDIOL” (Aphios Corporation, priority 2020, published 2022).

Experiments:
rhesus monkeys = conditions: intravenously
dogs = conditions: intravenously
mice [1] = conditions: intravenously
rats = conditions: i.v.
mice [2] = test system: mice

C=C(C)[C@@H]1CCC(C)=C[C@H]1c1c(O)cc(CCCCC)cc1O [CBD, cannabidiol]
LD50 in rhesus monkeys (rhesus monkeys): 212 mg/kg | LD50 in dogs (dogs): 254 mg/kg | LD50 in mice (mice [1]): 50 mg/kg | toxicity relative to Δ9-THC by LD50 (rats): less toxic than Δ9-THC | anti-nociceptive effect, tail-flick test (Wistar rats): dose-dependent anti-nociceptive effects | inhibition of cue-induced heroin-seeking behaviors (mice [2]): effectively inhibit cue-induced heroin-seeking behaviors
